Laboratory results reported in US8063220B2, “Sulfonyl-quinoline derivatives” (Richter Gedeon Nyrt., priority 2007, dated 2011).

Assays:
rat mGluR1 = target: T1, rat mGluR1 (Rattus norvegicus, UniProt P23385); experiment: MGluR1 receptor binding test ([3H]R214127 displacement, rat cerebellar membrane preparation); conditions: rat mGluR1, [3H]R214127 3 nM; read-out: mGlu1 Ki
T1 construct: rat cerebellar membrane preparation was used; from tissue; host or cells: rat cerebellum (membrane preparation)
In short: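 Rat cerebellar membranes with 3 nM [3H]R214127; nonspecific binding defined by 1 μM R214127. IC50 from displacement curves by nonlinear regression, converted to Ki by Cheng–Prusoff.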

rat mGluR5 = target: T2, rat mGluR5 (Rattus norvegicus, UniProt P31424); experiment: MGluR5 receptor binding test ([3H]-M-MPEP displacement, rat cerebro-cortical membrane preparation); conditions: rat mGluR5, [3H]-M-MPEP 2 nM; read-out: mGlu5 Ki
T2 construct: Rat cerebro-cortical membrane preparation was used; from tissue; host or cells: rat cerebral cortex (membrane preparation)
Procedure: Rat cerebro-cortical membrane preparation was used to determine the binding characteristics of reference compounds and novel compounds to the rat mGluR5. The A18 cell line expressing hmGluR5a (purchased from Euroscreen) was used to determine binding characteristics of the chemical compounds to the human mGluR5a receptor. [3H]-M-MPEP (2 nM) was used as radioligand. The nonspecific binding was determined in the presence of 10 μM M-MPEP.

T1 sequence (P23385 19-1199): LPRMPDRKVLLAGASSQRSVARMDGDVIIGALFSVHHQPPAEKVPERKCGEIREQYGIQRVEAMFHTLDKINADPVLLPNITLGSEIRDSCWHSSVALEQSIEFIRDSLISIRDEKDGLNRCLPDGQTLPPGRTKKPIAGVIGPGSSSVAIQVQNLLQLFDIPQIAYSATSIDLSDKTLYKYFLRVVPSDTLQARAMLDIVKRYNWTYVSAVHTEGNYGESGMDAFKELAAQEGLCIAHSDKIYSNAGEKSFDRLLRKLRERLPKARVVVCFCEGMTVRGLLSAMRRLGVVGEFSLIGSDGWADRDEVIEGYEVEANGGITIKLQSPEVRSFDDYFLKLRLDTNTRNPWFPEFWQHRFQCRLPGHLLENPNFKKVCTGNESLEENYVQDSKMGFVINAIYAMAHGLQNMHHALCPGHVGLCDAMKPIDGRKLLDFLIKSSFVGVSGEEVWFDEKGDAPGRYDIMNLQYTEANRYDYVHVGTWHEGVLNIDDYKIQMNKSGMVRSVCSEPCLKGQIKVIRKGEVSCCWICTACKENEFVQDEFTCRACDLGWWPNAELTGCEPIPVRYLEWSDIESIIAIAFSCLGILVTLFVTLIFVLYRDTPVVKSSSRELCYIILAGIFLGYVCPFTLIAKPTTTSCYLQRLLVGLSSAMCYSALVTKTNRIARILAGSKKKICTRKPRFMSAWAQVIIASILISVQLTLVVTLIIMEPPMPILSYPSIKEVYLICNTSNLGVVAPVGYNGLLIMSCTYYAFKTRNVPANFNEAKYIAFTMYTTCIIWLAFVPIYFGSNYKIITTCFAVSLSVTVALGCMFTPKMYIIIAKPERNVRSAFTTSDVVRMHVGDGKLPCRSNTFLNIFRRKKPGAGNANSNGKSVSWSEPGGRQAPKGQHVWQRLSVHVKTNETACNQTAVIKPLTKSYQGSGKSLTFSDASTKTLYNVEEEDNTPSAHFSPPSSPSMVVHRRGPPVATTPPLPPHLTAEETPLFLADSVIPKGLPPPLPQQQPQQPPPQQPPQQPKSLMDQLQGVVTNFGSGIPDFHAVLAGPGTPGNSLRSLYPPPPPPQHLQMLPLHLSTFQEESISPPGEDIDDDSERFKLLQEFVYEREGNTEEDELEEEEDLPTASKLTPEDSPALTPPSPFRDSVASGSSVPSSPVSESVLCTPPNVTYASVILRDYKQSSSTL
T2 sequence (P31424 21-1203): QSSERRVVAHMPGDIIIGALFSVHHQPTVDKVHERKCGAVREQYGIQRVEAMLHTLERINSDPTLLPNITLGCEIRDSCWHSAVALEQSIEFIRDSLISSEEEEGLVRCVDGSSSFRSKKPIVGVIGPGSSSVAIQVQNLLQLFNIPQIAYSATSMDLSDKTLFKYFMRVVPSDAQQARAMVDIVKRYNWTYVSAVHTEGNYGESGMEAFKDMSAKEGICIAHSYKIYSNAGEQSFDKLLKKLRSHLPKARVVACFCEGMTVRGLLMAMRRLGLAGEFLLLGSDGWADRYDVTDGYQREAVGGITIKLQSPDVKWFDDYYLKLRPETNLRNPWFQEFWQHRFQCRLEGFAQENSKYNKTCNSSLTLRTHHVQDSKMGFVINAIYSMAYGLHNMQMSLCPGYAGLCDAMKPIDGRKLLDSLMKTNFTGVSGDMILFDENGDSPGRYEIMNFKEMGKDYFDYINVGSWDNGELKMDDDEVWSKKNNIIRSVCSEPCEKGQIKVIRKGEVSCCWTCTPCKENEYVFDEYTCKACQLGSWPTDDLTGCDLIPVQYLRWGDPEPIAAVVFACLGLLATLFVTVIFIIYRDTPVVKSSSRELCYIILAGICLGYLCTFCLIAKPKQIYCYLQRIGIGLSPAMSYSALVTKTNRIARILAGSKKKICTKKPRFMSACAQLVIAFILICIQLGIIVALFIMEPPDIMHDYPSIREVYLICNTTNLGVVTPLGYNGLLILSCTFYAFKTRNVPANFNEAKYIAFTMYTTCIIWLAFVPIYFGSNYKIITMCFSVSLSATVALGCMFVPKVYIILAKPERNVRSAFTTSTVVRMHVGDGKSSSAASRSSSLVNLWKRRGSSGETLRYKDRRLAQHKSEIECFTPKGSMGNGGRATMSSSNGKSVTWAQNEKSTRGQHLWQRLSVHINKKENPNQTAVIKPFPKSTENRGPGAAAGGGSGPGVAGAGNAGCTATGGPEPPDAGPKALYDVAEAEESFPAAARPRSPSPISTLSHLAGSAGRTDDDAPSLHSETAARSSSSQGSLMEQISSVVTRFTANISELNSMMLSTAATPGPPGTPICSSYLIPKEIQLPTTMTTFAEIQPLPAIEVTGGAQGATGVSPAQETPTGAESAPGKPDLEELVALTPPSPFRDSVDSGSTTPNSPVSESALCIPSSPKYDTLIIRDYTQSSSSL

Ki (rat mGluR1) | Ki (rat mGluR5) | SMILES
< 200 nM | < 200 nM | O=S(=O)(c1cc(Cl)cc(Cl)c1)c1cnc2c(F)cccc2c1-c1ccc(F)cc1 [Compound 50]
> 500 nM | < 200 nM | O=S(=O)(c1cc(F)cc(F)c1)c1cnc2cc(Cl)ccc2c1-c1ccc(F)cc1 [Compound 181]
200 to 500 nM | < 200 nM | COc1ccc(-c2c(S(=O)(=O)c3ccc(F)c(Cl)c3)cnc3cc(F)ccc23)cc1 [Compound 104]
> 500 nM | < 200 nM | COc1ccc(-c2c(S(=O)(=O)c3cc(Cl)cc(Cl)c3)cnc3cc(F)ccc23)cc1 [Compound 81]
> 500 nM | < 200 nM | O=S(=O)(c1cc(F)cc(F)c1)c1cnc2cc(F)ccc2c1-c1ccc(F)cc1 [Compound 36]
200 to 500 nM | < 200 nM | O=S(=O)(c1ccc(F)c(Cl)c1)c1cnc2c(F)cccc2c1-c1cccc(F)c1 [Compound 210]
> 500 nM | < 200 nM | O=S(=O)(c1cc(Cl)cc(Cl)c1)c1cnc2ccc(F)cc2c1-c1ccc(Cl)cc1 [Compound 161]
200 to 500 nM | < 200 nM | O=S(=O)(c1ccc(F)c(Cl)c1)c1cnc2c(F)cccc2c1-c1ccccc1F [Compound 209]
200 to 500 nM | < 200 nM | N#Cc1cccc(S(=O)(=O)c2cnc3ccc(F)cc3c2-c2cccc(Cl)c2)c1 [Compound 135]
200 to 500 nM | < 200 nM | O=S(=O)(c1cccc(F)c1)c1cnc2c(F)cccc2c1-c1ccc(Cl)cc1 [Compound 59]
< 200 nM | < 200 nM | N#Cc1cccc(S(=O)(=O)c2cnc3cc(Cl)ccc3c2-c2ccccc2F)c1 [Compound 227]
> 500 nM | < 200 nM | N#Cc1cccc(S(=O)(=O)c2cnc3ccccc3c2-c2cccc(F)c2)c1 [Compound 214]
> 500 nM | < 200 nM | N#Cc1cccc(S(=O)(=O)c2cnc3c(F)cccc3c2-c2cccc(F)c2)c1 [Compound 215]
> 500 nM | < 200 nM | Cc1ccc(S(=O)(=O)c2cnc3cc(F)ccc3c2-c2ccc(F)cc2)cc1C [Compound 46]
> 500 nM | < 200 nM | COc1ccc(-c2c(S(=O)(=O)c3ccc(OC)cc3)cnc3cc(F)ccc23)cc1 [Compound 13]
200 to 500 nM | 200 to 500 nM | O=S(=O)(c1ccc(F)c(F)c1)c1cnc2ccc(F)cc2c1-c1cccc(Cl)c1 [Compound 149]
200 to 500 nM | < 200 nM | O=S(=O)(c1ccc(F)c(F)c1)c1cnc2ccc(F)cc2c1-c1ccc(F)cc1 [Compound 152]
> 500 nM | < 200 nM | N#Cc1cc(S(=O)(=O)c2cnc3ccccc3c2-c2cccc(Cl)c2)ccc1F [Compound 217]
> 500 nM | < 200 nM | COc1cccc(-c2c(S(=O)(=O)c3cc(F)cc(F)c3)cnc3c(F)cccc23)c1 [Compound 118]
> 500 nM | < 200 nM | O=S(=O)(c1ccc(F)cc1)c1cnc2cc(F)ccc2c1-c1ccc(F)cc1 [Compound 40]
> 500 nM | < 200 nM | O=S(=O)(c1cc(F)cc(F)c1)c1cnc2c(F)cccc2c1-c1cccc(F)c1 [Compound 51]

Ki (rat mGluR1) | Ki (rat mGluR5) | SMILES
> 500 nM | < 200 nM | COc1cccc(-c2c(S(=O)(=O)c3ccc(F)c(F)c3)cnc3cc(F)ccc23)c1 [Compound 100]
> 500 nM | < 200 nM | N#Cc1cc(F)cc(S(=O)(=O)c2cnc3ccccc3c2-c2ccc(F)cc2)c1 [Compound 271]
200 to 500 nM | < 200 nM | N#Cc1cc(S(=O)(=O)c2cnc3cc(Cl)ccc3c2-c2ccc(Cl)cc2)ccc1F [Compound 277]
200 to 500 nM | < 200 nM | O=S(=O)(c1ccc(F)c(F)c1)c1cnc2cc(F)ccc2c1-c1cccc(F)c1 [Compound 98]
> 500 nM | 200 to 500 nM | O=S(=O)(c1ccc(F)cc1)c1cnc2ccc(F)cc2c1-c1cccc(F)c1 [Compound 26]
200 to 500 nM | < 200 nM | O=S(=O)(c1ccc(F)c(F)c1)c1cnc2cc(F)ccc2c1-c1ccc(F)cc1 [Compound 101, 3-(3,4-difluoro-benzenesulfonyl)-7-fluoro-4-(4-fluoro-phenyl)-quinoline]
> 500 nM | < 200 nM | COc1cccc(-c2c(S(=O)(=O)c3ccc(C)c(F)c3)cnc3ccc(F)cc23)c1 [Compound 130]
> 500 nM | < 200 nM | COc1ccc(-c2c(S(=O)(=O)c3cccc(F)c3)cnc3c(F)cccc23)cc1 [Compound 61]
> 500 nM | < 200 nM | COc1cccc(S(=O)(=O)c2cnc3ccc(F)cc3c2-c2ccc(Cl)cc2)c1 [Compound 144]
> 500 nM | < 200 nM | COc1cccc(S(=O)(=O)c2cnc3cc(F)ccc3c2-c2cccc(Cl)c2)c1 [Compound 43]
200 to 500 nM | < 200 nM | O=S(=O)(c1cc(Cl)cc(Cl)c1)c1cnc2cc(Cl)ccc2c1-c1ccccc1F [Compound 255]
> 500 nM | < 200 nM | N#Cc1cc(F)cc(S(=O)(=O)c2cnc3cc(Cl)ccc3c2-c2ccc(F)cc2)c1 [Compound 186, 7-chloro-3-(3-cyano-5-fluoro-benzenesulfonyl)-4-(4-fluoro-phenyl)-quinoline]
> 500 nM | 200 to 500 nM | COc1ccc(-c2c(S(=O)(=O)c3cc(F)cc(F)c3)cnc3ccc(F)cc23)cc1 [Compound 133]
200 to 500 nM | < 200 nM | O=S(=O)(c1cc(Cl)cc(Cl)c1)c1cnc2c(F)cccc2c1-c1cccc(Cl)c1 [Compound 158]
200 to 500 nM | < 200 nM | O=S(=O)(c1cc(Cl)cc(Cl)c1)c1cnc2cc(F)ccc2c1-c1cccc(F)c1 [Compound 80]
< 200 nM | < 200 nM | N#Cc1cc(S(=O)(=O)c2cnc3cc(Cl)ccc3c2-c2cccc(F)c2)ccc1F [Compound 219]
< 200 nM | < 200 nM | O=S(=O)(c1ccc(F)c(Cl)c1)c1cnc2cc(F)ccc2c1-c1ccc(F)cc1 [Compound 105]
200 to 500 nM | < 200 nM | O=S(=O)(c1cc(Cl)cc(Cl)c1)c1cnc2cc(Cl)ccc2c1-c1cccc(Cl)c1 [Compound 263]
> 500 nM | > 500 nM | O=S(=O)(c1ccc(Cl)cc1)c1cnc2ccc(F)cc2c1-c1ccc(F)cc1 [Compound 31]
> 500 nM | 200 to 500 nM | O=S(=O)(c1ccc(F)cc1)c1cnc2ccc(F)cc2c1-c1ccc(Cl)cc1 [Compound 25]
> 500 nM | > 500 nM | O=S(=O)(c1ccc(Cl)cc1)c1cnc2c(Cl)ccc(Cl)c2c1-c1cccc(Cl)c1 [Compound 185]

Ki (rat mGluR1) | Ki (rat mGluR5) | SMILES
> 500 nM | < 200 nM | O=S(=O)(c1ccc(F)c(F)c1)c1cnc2cc(Cl)ccc2c1-c1cccc(F)c1 [Compound 170, 7-chloro-3-(3,4-difluoro-benzenesulfonyl)-4-(3-fluoro-phenyl)-quinoline]
> 500 nM | < 200 nM | Cc1ccc(S(=O)(=O)c2cnc3ccc(F)cc3c2-c2ccc(F)cc2)cc1F [Compound 131]
> 500 nM | < 200 nM | N#Cc1cccc(S(=O)(=O)c2cnc3c(F)cccc3c2-c2ccc(F)cc2)c1 [Compound 222]
200 to 500 nM | < 200 nM | N#Cc1cccc(S(=O)(=O)c2cnc3cc(F)ccc3c2-c2cc(F)cc(F)c2)c1 [Compound 245]
> 500 nM | < 200 nM | O=S(=O)(c1ccc(Cl)c(F)c1)c1cnc2cc(F)c(Cl)cc2c1-c1ccc(F)cc1 [Compound 190]
> 500 nM | < 200 nM | COc1cccc(-c2c(S(=O)(=O)c3ccc(C)c(Cl)c3)cnc3ccc(F)cc23)c1 [Compound 141]
200 to 500 nM | < 200 nM | N#Cc1cccc(S(=O)(=O)c2cnc3cc(Cl)ccc3c2-c2cccc(Cl)c2)c1 [Compound 254]
> 500 nM | < 200 nM | O=S(=O)(c1cc(F)cc(F)c1)c1cnc2cc(Cl)ccc2c1-c1ccc(Cl)cc1 [Compound 174]
> 500 nM | < 200 nM | Cc1ccc(S(=O)(=O)c2cnc3c(F)cccc3c2-c2ccc(Cl)cc2)cc1F [Compound 110]
> 500 nM | < 200 nM | N#Cc1cc(F)cc(S(=O)(=O)c2cnc3c(N)cccc3c2-c2cccc(F)c2)c1 [Compound 279]
> 500 nM | < 200 nM | N#Cc1cc(F)cc(S(=O)(=O)c2cnc3ccccc3c2-c2cccc(Cl)c2)c1 [Compound 226]
> 500 nM | < 200 nM | N#Cc1cc(C#N)cc(S(=O)(=O)c2cnc3cc(F)ccc3c2-c2ccc(F)cc2)c1 [Compound 249]
> 500 nM | < 200 nM | N#Cc1cc(F)cc(S(=O)(=O)c2cnc3ccccc3c2-c2ccc(Cl)cc2)c1 [Compound 272]
> 500 nM | < 200 nM | Cc1ccc(S(=O)(=O)c2cnc3ccc(F)cc3c2-c2cccc(Cl)c2)cc1Cl [Compound 138]
> 500 nM | < 200 nM | O=S(=O)(c1ccc(F)c(F)c1)c1cnc2cc(Cl)ccc2c1-c1ccc(Cl)cc1 [Compound 175]
< 200 nM | < 200 nM | O=S(=O)(c1ccc(F)c(Cl)c1)c1cnc2cc(F)ccc2c1-c1cccc(F)c1 [Compound 103]
> 500 nM | < 200 nM | O=S(=O)(c1cccc(F)c1)c1cnc2cc(Cl)ccc2c1-c1cccc(F)c1 [Compound 168]
< 200 nM | < 200 nM | O=S(=O)(c1ccc(F)c(Cl)c1)c1cnc2cc(Cl)ccc2c1-c1cc(F)cc(F)c1 [Compound 262]
> 500 nM | < 200 nM | N#Cc1cc(F)cc(S(=O)(=O)c2cnc3cc(F)ccc3c2-c2cccc(F)c2)c1 [Compound 228]
